Experimental data reported in US9302988B2, “Fluoromethyl-substituted pyrrole carboxamides” (GRÜNENTHAL GMBH, priority 2012, dated 2016).

Molecular target: T1, Human CaV2.2 channels (Homo sapiens, UniProt Q00975)
T1 construct: expressed in transfected cells
Assay: Fluorescent assay for CaV2.2 channels using potassium depolarization to induce channel opening (FLIPR, Fluo-4)
Format: cell-based
Details: 3 μM test compound, 30 mM KCl, HEK293 cells stably expressing human CaV2.2; read-out: %-Inhib (CaV2.2) @3 μM @30 mM KCl
Method in brief: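 Channel block was read as the baseline-normalized peak Ca²⁺ signal (Fluo-4, 480/535 nm) after a high-KCl depolarizing addition (210 mM KCl buffer). Beforehand, compound sat 15 min at 25 °C on HEK293 cells carrying human CaV2.2, α2δ/β subunits and Kir2.3, in pH 7.4 buffer with 30 mM KCl.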

T1 sequence (Q00975 whole entry): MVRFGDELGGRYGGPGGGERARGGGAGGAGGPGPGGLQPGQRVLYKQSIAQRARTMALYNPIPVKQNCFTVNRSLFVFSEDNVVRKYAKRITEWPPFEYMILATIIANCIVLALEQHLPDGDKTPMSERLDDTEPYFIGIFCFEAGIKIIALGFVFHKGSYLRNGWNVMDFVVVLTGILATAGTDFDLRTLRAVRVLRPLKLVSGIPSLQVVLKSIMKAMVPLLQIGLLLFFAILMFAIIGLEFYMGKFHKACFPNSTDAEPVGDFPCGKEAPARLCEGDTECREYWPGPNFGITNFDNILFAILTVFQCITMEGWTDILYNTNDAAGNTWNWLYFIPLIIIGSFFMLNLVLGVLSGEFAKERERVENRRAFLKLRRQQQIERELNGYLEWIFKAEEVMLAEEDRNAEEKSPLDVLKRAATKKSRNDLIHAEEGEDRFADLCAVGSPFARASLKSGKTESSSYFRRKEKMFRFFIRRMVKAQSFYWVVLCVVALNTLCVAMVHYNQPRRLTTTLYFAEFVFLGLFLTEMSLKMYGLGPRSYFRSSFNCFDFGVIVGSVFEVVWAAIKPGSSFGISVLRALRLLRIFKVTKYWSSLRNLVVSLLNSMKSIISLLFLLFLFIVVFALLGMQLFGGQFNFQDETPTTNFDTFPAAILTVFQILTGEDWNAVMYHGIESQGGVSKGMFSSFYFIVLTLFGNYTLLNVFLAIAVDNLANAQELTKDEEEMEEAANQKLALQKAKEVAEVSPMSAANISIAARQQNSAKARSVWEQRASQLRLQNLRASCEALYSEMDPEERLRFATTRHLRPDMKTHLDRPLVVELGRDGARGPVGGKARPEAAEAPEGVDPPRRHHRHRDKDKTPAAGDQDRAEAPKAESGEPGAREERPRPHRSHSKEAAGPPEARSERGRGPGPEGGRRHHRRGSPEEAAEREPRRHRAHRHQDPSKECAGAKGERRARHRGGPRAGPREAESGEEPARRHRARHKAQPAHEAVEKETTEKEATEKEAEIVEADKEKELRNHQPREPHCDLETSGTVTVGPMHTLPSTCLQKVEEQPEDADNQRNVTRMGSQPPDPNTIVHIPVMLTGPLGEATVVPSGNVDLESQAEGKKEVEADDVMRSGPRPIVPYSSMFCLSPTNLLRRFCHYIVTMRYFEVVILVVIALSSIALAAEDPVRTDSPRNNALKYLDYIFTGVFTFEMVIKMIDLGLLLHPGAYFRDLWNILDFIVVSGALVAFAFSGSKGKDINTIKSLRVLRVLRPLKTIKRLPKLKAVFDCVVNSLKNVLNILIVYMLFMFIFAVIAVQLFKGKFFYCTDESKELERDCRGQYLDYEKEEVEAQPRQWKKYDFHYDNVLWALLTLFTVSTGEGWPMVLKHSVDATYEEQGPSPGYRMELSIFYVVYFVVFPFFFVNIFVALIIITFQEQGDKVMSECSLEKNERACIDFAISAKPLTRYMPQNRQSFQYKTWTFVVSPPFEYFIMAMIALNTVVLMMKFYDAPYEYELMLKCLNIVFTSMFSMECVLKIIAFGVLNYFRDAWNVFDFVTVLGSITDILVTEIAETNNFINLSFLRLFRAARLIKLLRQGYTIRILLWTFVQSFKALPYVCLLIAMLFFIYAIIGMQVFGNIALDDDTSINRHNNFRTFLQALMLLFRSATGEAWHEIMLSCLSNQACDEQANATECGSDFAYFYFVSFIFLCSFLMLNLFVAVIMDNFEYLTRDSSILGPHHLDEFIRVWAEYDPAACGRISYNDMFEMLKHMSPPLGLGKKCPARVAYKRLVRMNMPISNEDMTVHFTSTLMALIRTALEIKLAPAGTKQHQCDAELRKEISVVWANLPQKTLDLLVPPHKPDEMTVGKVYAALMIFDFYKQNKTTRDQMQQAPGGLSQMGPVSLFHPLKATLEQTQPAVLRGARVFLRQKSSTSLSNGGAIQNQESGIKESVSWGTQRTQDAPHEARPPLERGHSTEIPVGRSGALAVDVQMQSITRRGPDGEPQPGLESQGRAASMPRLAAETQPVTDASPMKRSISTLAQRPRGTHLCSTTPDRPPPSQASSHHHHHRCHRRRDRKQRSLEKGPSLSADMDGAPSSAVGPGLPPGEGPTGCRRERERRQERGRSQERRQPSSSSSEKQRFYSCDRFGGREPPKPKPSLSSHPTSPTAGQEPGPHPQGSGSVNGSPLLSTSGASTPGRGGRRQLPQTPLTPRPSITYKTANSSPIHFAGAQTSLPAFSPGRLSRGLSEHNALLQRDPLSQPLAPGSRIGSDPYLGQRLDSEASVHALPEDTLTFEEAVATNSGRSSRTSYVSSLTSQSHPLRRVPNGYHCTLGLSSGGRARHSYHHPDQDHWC
T1 sequence (P54289 25-1103, further chain): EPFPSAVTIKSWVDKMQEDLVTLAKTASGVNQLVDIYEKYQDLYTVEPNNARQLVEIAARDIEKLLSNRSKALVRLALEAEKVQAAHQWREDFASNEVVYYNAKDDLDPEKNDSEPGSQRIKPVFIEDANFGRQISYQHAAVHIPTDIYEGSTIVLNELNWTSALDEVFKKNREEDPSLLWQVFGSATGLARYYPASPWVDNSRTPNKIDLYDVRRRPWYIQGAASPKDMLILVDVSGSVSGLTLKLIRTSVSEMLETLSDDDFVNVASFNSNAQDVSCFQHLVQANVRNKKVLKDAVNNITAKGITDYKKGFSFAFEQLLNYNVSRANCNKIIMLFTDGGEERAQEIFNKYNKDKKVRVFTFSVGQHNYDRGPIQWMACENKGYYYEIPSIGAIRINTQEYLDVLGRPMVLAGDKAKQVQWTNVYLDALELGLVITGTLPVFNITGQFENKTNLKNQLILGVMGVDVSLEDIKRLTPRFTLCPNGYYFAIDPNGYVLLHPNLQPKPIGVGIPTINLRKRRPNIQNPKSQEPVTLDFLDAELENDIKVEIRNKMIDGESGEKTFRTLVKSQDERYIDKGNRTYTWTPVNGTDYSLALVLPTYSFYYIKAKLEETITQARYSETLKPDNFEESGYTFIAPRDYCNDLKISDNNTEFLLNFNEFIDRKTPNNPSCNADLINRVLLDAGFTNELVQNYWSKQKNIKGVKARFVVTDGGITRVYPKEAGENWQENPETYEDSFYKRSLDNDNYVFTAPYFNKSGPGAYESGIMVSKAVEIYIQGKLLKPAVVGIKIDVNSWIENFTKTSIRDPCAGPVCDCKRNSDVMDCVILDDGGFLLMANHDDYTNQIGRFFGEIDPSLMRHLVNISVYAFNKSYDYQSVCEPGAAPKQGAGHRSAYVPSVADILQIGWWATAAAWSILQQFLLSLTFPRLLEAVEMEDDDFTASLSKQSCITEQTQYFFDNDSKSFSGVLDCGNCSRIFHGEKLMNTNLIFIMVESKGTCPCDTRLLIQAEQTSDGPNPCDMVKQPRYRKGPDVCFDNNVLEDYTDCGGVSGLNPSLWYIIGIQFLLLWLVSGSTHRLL
T1 sequence (P54284 whole entry, further chain): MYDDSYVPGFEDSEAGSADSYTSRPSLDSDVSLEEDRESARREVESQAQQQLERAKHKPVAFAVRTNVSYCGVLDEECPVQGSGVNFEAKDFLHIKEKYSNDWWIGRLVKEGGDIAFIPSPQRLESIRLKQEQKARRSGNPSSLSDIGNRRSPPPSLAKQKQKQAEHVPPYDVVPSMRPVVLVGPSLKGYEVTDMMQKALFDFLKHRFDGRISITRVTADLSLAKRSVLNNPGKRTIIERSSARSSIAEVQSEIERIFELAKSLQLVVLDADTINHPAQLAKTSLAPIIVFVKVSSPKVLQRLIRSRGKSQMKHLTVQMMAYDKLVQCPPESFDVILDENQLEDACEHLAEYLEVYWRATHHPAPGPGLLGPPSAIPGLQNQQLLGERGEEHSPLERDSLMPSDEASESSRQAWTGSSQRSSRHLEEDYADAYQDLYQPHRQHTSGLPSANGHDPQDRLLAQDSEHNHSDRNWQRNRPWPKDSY

O=C(c1c(-c2ccc(Cl)cc2)cc(C(F)(F)F)n1Cc1ccccc1)N1CCOCC1 [SC-01, [1-Benzyl-3-(4-chlorophenyl)-5-(trifluoromethyl)-1H-pyrrol-2-yl]-morpholin-4-yl-methanone]
inhibition at 3 µM: > 95%

O=C(c1c(-c2ccc(Cl)cc2)cc(C(F)(F)F)n1Cc1ccccc1)N1CCn2ccnc2C1 [SC-217, [1-Benzyl-3-(4-chlorophenyl)-5-(trifluoromethyl)-1H-pyrrol-2-yl]-(5,6,7,8-tetrahydro-imidazo[1,2-a]pyrazin-7-yl)-methanone]
inhibition at 3 µM: > 95%

CN(CC(C)(C)C)C(=O)c1c(-c2ccc(Cl)cc2)c(S(C)(=O)=O)c(C(F)(F)F)n1Cc1ccccc1 [SC-259, 1-Benzyl-3-(4-chlorophenyl)-N-(2,2-dimethyl-propyl)-N-methyl-4-methylsulfonyl-5-(trifluoromethyl)-1H-pyrrole-2-carboxylic acid amide]
inhibition at 3 µM: 75 to 95%

Cc1c(-c2ccc(C(F)(F)F)cc2)c(C(=O)N2CCOCC2)n(Cc2ccccc2)c1C(F)(F)F [SC-102, [1-Benzyl-4-methyl-5-(trifluoromethyl)-3-[4-(trifluoromethyl)-phenyl]-1H-pyrrol-2-yl]-morpholin-4-yl-methanone]
inhibition at 3 µM: 75 to 95%

CN(CC(C)(C)C(N)=O)C(=O)c1c(-c2ccc(Cl)cc2)cc(C(F)(F)F)n1Cc1ccccc1 [SC-174, 1-Benzyl-N-(2-carbamoyl-2-methyl-propyl)-3-(4-chlorophenyl)-N-methyl-5-(trifluoromethyl)-1H-pyrrole-2-carboxylic acid amide]
inhibition at 3 µM: > 95%

CN(CCC(C)(C)O)C(=O)c1c(-c2ccc(Cl)cc2)cc(C(F)(F)F)n1Cc1ccccc1 [SC-176, 1-Benzyl-3-(4-chlorophenyl)-N-(3-hydroxy-3-methyl-butyl)-N-methyl-5-(trifluoromethyl)-1H-pyrrole-2-carboxylic acid amide]
inhibition at 3 µM: > 95%

O=C1CN(C(=O)c2c(-c3ccc(Cl)cc3)cc(C(F)(F)F)n2Cc2cccc(Cl)c2)CCN1 [SC-81, 4-[3-(4-Chlorophenyl)-1-[(3-chlorophenyl)-methyl]-5-(trifluoromethyl)-1H-pyrrole-2-carbonyl]-piperazin-2-one]
inhibition at 3 µM: > 95%
